Measured values reported in ChEMBL document CHEMBL1201861, “Genomics of Drug Sensitity in Cancer screening data, Wellcome Trust Sanger Institute”.

Tests used:
Assay in all cases: cells
ACN = format: functional, cell-based, Homo sapiens; conditions: Homo sapiens, ACN;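 further: growth inhibition of the human ACN cell line, read out via cell viability testing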
Description: SANGER: Inhibition of human ACN cell growth in a cell viability assay.

J-RT3-T3-5 = format: functional, cell-based; conditions: Homo sapiens;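 further: cell viability assay measuring growth inhibition of human J-RT3-T3-5 cells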
Description: SANGER: Inhibition of human J-RT3-T3-5 cell growth in a cell viability assay.

D-247MG = format: functional, cell-based, Homo sapiens; conditions: Homo sapiens, D-247MG
Description: SANGER: Inhibition of human D-247MG cell growth in a cell viability assay.

NCI-H82 = format: functional, cell-based; conditions: Homo sapiens;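 further: growth inhibition of NCI-H82 cells, measured with a cell viability readout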
Description: SANGER: Inhibition of human NCI-H82 cell growth in a cell viability assay.

HCC1187 = format: functional, cell-based, Homo sapiens; conditions: Homo sapiens, HCC1187;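 further: growth inhibition of HCC1187 cells, read out with a cell viability assay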
Description: SANGER: Inhibition of human HCC1187 cell growth in a cell viability assay.

KINGS-1 = format: functional, cell-based, Homo sapiens; conditions: Homo sapiens, KINGS-1;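 further: cell viability assay measuring suppression of KINGS-1 cell growth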
Description: SANGER: Inhibition of human KINGS-1 cell growth in a cell viability assay.

EOL1 = format: functional, cell-based; conditions: Homo sapiens;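 further: growth inhibition of EoL-1 cells, read out by a cell viability assay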
Description: SANGER: Inhibition of human EoL-1-cell cell growth in a cell viability assay.

SW872 = format: functional, cell-based, Homo sapiens; conditions: Homo sapiens, SW872;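 further: growth inhibition of SW872 cells, read out by a viability assay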
Description: SANGER: Inhibition of human SW872 cell growth in a cell viability assay.

no-10 = format: functional, cell-based, Homo sapiens; conditions: Homo sapiens;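 further: growth inhibition of no-10 cells, read out with a cell viability assay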
Description: SANGER: Inhibition of human no-10 cell growth in a cell viability assay.

KNS-42 = format: functional, cell-based, Homo sapiens; conditions: Homo sapiens, KNS-42;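 further: growth inhibition of KNS-42 cells, read out with a cell viability assay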
Description: SANGER: Inhibition of human KNS-42 cell growth in a cell viability assay.

SF-126 = format: functional, cell-based, Homo sapiens; conditions: Homo sapiens, SF-126;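 further: growth inhibition of human SF126 cells, read out with a cell viability assay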
Description: SANGER: Inhibition of human SF126 cell growth in a cell viability assay.

KS-1 = format: functional, cell-based, Homo sapiens; conditions: Homo sapiens, KS-1;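 further: growth inhibition of KS-1 cells, read out with a cell viability assay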
Description: SANGER: Inhibition of human KS-1 cell growth in a cell viability assay.

JVM-3 = format: functional, cell-based; conditions: Homo sapiens;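 further: growth inhibition of human JVM-3 cells, read out with a cell viability assay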
Description: SANGER: Inhibition of human JVM-3 cell growth in a cell viability assay.

ES1 = format: functional, cell-based, Homo sapiens; conditions: Homo sapiens, ES1;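 further: growth inhibition of ES1 cells, read out with a cell viability assay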
Description: SANGER: Inhibition of human ES1 cell growth in a cell viability assay.

OCUB-M = format: functional, cell-based, Homo sapiens; conditions: Homo sapiens, OCUB-M;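 further: growth inhibition of the cancer cell line, read out through a cell viability assay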
Description: SANGER: Inhibition of human OCUB-M cell growth in a cell viability assay.

MPP-89 = format: functional, cell-based, Homo sapiens; conditions: Homo sapiens, MPP-89;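 further: growth inhibition of human MPP-89 cells, read out with a cell viability assay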
Description: SANGER: Inhibition of human MPP-89 cell growth in a cell viability assay.

COLO-824 = format: functional, cell-based, Homo sapiens; conditions: Homo sapiens, COLO-824
Description: SANGER: Inhibition of human COLO-824 cell growth in a cell viability assay.

NKM-1 = format: functional, cell-based; conditions: Homo sapiens;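 further: growth inhibition of NKM-1 cells, read out with a cell viability assay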
NB5 = format: functional, cell-based, Homo sapiens; conditions: Homo sapiens, NB5;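 further: growth inhibition of NB5 cells, read out as cell viability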
Description: SANGER: Inhibition of human NB5 cell growth in a cell viability assay.

TE-8 = format: functional, cell-based, Homo sapiens; conditions: Homo sapiens, TE-8;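 further: growth inhibition of TE-8 cells, measured with a cell viability readout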
Description: SANGER: Inhibition of human TE-8 cell growth in a cell viability assay.

LB373-MEL-D = format: functional, cell-based, Homo sapiens; conditions: Homo sapiens, LB373-MEL-D;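 further: growth inhibition of the cell line, read out in a cell viability assay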
Description: SANGER: Inhibition of human LB373-MEL-D cell growth in a cell viability assay.

LAN-6 = format: functional, cell-based, Homo sapiens; conditions: Homo sapiens, LAN-6;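 further: growth inhibition of LAN-6 cells, determined with a cell viability assay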
Description: SANGER: Inhibition of human LAN-6 cell growth in a cell viability assay.

C=C1C(=O)O[C@@H]2C3O[C@]3(C)CC/C=C(\C)CC[C@@H]12 (stereo not given in full)
IC50 (ACN): > 5000 nM
IC50 (J-RT3-T3-5): > 5000 nM
IC50 (D-247MG): > 5000 nM
IC50 (NCI-H82): > 5 µM
IC50 (HCC1187): > 5000 nM
IC50 (KINGS-1): > 5000 nM
IC50 (EOL1): > 5000 nM
IC50 (SW872): > 5000 nM
IC50 (no-10): 1340 nM
IC50 (KNS-42): > 5000 nM
IC50 (SF-126): > 5000 nM
IC50 (KS-1): > 5000 nM
IC50 (JVM-3): > 5 µM
IC50 (ES1): > 5000 nM
IC50 (OCUB-M): > 5000 nM
IC50 (MPP-89): > 5000 nM
IC50 (COLO-824): > 5000 nM
IC50 (NKM-1): > 5000 nM
IC50 (NB5): > 5000 nM
IC50 (TE-8): > 5000 nM
IC50 (LB373-MEL-D): > 5000 nM
IC50 (LAN-6): > 5 µM

CC1=C2C[C@H]3[C@@H](CC=C4C[C@@H](O)CC[C@@]43C)[C@@H]2CC[C@]12O[C@@H]1C[C@H](C)CN[C@H]1[C@H]2C [CYCLOPAMINE]
IC50 (ACN): > 16000 nM
IC50 (J-RT3-T3-5): > 16000 nM
IC50 (D-247MG): > 16000 nM
IC50 (NCI-H82): > 16 µM
IC50 (HCC1187): > 16000 nM
IC50 (KINGS-1): > 16000 nM
IC50 (EOL1): > 16000 nM
IC50 (SW872): > 16000 nM
IC50 (no-10): 9900 nM
IC50 (KNS-42): > 16000 nM
IC50 (SF-126): > 16000 nM
IC50 (KS-1): > 16000 nM
IC50 (JVM-3): > 16 µM
IC50 (ES1): > 16000 nM
IC50 (OCUB-M): > 16000 nM
IC50 (MPP-89): > 16000 nM
IC50 (COLO-824): > 16000 nM
IC50 (NKM-1): > 16000 nM
IC50 (NB5): > 16000 nM
IC50 (TE-8): > 16000 nM
IC50 (LB373-MEL-D): > 16000 nM
IC50 (LAN-6): > 16 µM

CS(=O)(=O)CCNCc1ccc(-c2ccc3ncnc(Nc4ccc(OCc5cccc(F)c5)c(Cl)c4)c3c2)o1 [LAPATINIB]
IC50 (ACN): > 2000 nM
IC50 (J-RT3-T3-5): > 2000 nM
IC50 (D-247MG): > 2000 nM
IC50 (NCI-H82): > 2 µM
IC50 (HCC1187): > 2000 nM
IC50 (KINGS-1): > 2000 nM
IC50 (EOL1): > 2000 nM
IC50 (SW872): > 2000 nM
IC50 (no-10): > 2000 nM
IC50 (KNS-42): > 2000 nM
IC50 (SF-126): > 2000 nM
IC50 (KS-1): > 2000 nM
IC50 (JVM-3): > 2 µM
IC50 (ES1): > 2000 nM
IC50 (OCUB-M): 57.4 nM
IC50 (MPP-89): > 2000 nM
IC50 (COLO-824): > 2000 nM
IC50 (NKM-1): > 2000 nM
IC50 (NB5): > 2000 nM
IC50 (TE-8): > 2000 nM
IC50 (LB373-MEL-D): > 2000 nM
IC50 (LAN-6): > 2 µM

CCc1nc(N)nc(N)c1-c1ccc(Cl)cc1 [PYRIMETHAMINE]
IC50 (ACN): 2300 nM
IC50 (J-RT3-T3-5): 2220 nM
IC50 (D-247MG): > 20000 nM
IC50 (NCI-H82): 9.11 µM
IC50 (HCC1187): > 20000 nM
IC50 (KINGS-1): > 20000 nM
IC50 (EOL1): > 20000 nM
IC50 (SW872): > 20000 nM
IC50 (no-10): > 20000 nM
IC50 (KNS-42): > 20000 nM
IC50 (SF-126): > 20000 nM
IC50 (KS-1): > 20000 nM
IC50 (JVM-3): > 20 µM
IC50 (ES1): 123 nM
IC50 (OCUB-M): > 20000 nM
IC50 (MPP-89): > 20000 nM
IC50 (COLO-824): > 20000 nM
IC50 (NKM-1): > 20000 nM
IC50 (NB5): > 20000 nM
IC50 (TE-8): > 20000 nM
IC50 (LB373-MEL-D): > 20000 nM
IC50 (LAN-6): > 20 µM

O=C(/C=C/c1ccccc1)NC(NC(=S)Nc1cccc2cccnc12)C(Cl)(Cl)Cl (stereo not given) [SALUBRINAL]
IC50 (ACN): > 16000 nM
IC50 (J-RT3-T3-5): 14700 nM
IC50 (D-247MG): > 16000 nM
IC50 (NCI-H82): > 16 µM
IC50 (HCC1187): > 16000 nM
IC50 (KINGS-1): > 16000 nM
IC50 (EOL1): > 16000 nM
IC50 (SW872): > 16000 nM
IC50 (no-10): > 16000 nM
IC50 (KNS-42): > 16000 nM
IC50 (SF-126): > 16000 nM
IC50 (KS-1): > 16000 nM
IC50 (JVM-3): > 16 µM
IC50 (ES1): > 16000 nM
IC50 (OCUB-M): > 16000 nM
IC50 (MPP-89): > 16000 nM
IC50 (COLO-824): > 16000 nM
IC50 (NKM-1): 10600 nM
IC50 (NB5): > 16000 nM
IC50 (TE-8): > 16000 nM
IC50 (LB373-MEL-D): > 16000 nM
IC50 (LAN-6): > 16 µM

CN1CCN(CCOc2cc(OC3CCOCC3)c3c(Nc4c(Cl)ccc5c4OCO5)ncnc3c2)CC1 [SARACATINIB]
IC50 (ACN): > 2000 nM
IC50 (J-RT3-T3-5): > 2000 nM
IC50 (D-247MG): > 2000 nM
IC50 (NCI-H82): > 2 µM
IC50 (HCC1187): > 2000 nM
IC50 (KINGS-1): > 2000 nM
IC50 (EOL1): > 2000 nM
IC50 (SW872): > 2000 nM
IC50 (no-10): > 2000 nM
IC50 (KNS-42): > 2000 nM
IC50 (SF-126): > 2000 nM
IC50 (KS-1): 1200 nM
IC50 (JVM-3): > 2 µM
IC50 (ES1): > 2000 nM
IC50 (OCUB-M): > 2000 nM
IC50 (MPP-89): > 2000 nM
IC50 (COLO-824): > 2000 nM
IC50 (NKM-1): > 2000 nM
IC50 (NB5): > 2000 nM
IC50 (TE-8): 873 nM
IC50 (LB373-MEL-D): > 2000 nM
IC50 (LAN-6): > 2 µM

CO[C@H]1C[C@@H]2CC[C@@H](C)[C@@](O)(O2)C(=O)C(=O)N2CCCC[C@H]2C(=O)O[C@H]([C@H](C)C[C@@H]2CC[C@@H](O)[C@H](OC)C2)CC(=O)[C@H](C)/C=C(\C)[C@@H](O)[C@@H](OC)C(=O)[C@H](C)C[C@H](C)/C=C/C=C/C=C/1C [SIROLIMUS]
IC50 (ACN): > 100 nM
IC50 (J-RT3-T3-5): 6.46 nM
IC50 (D-247MG): > 100 nM
IC50 (NCI-H82): > 0.1 µM
IC50 (HCC1187): > 100 nM
IC50 (KINGS-1): 51.5 nM
IC50 (EOL1): > 100 nM
IC50 (SW872): 0.846 nM
IC50 (no-10): 7.29 nM
IC50 (KNS-42): > 100 nM
IC50 (SF-126): 30.4 nM
IC50 (KS-1): 2.45 nM
IC50 (JVM-3): > 0.1 µM
IC50 (ES1): > 100 nM
IC50 (OCUB-M): < 0.391 nM
IC50 (MPP-89): > 100 nM
IC50 (COLO-824): > 100 nM
IC50 (NKM-1): > 100 nM
IC50 (NB5): > 100 nM
IC50 (TE-8): > 100 nM
IC50 (LB373-MEL-D): > 100 nM
IC50 (LAN-6): > 0.1 µM

CNC(=O)c1cc(Oc2ccc(NC(=O)Nc3ccc(Cl)c(C(F)(F)F)c3)cc2)ccn1 [SORAFENIB]
IC50 (ACN): > 4000 nM
IC50 (J-RT3-T3-5): > 4000 nM
IC50 (D-247MG): 2140 nM
IC50 (NCI-H82): > 4 µM
IC50 (HCC1187): > 4000 nM
IC50 (KINGS-1): > 4000 nM
IC50 (EOL1): > 4000 nM
IC50 (SW872): > 4000 nM
IC50 (no-10): 1620 nM
IC50 (KNS-42): > 4000 nM
IC50 (SF-126): 1640 nM
IC50 (KS-1): 3880 nM
IC50 (JVM-3): > 4 µM
IC50 (ES1): > 4000 nM
IC50 (OCUB-M): > 4000 nM
IC50 (MPP-89): > 4000 nM
IC50 (COLO-824): > 4000 nM
IC50 (NKM-1): 74.2 nM
IC50 (NB5): > 4000 nM
IC50 (TE-8): > 4000 nM
IC50 (LB373-MEL-D): > 4000 nM
IC50 (LAN-6): > 4 µM

CCC(=O)N1CCN(c2ccc(-n3c(=O)ccc4cnc5ccc(-c6cnc7ccccc7c6)cc5c43)cc2C(F)(F)F)CC1 [TORIN1]
IC50 (ACN): 15 nM
IC50 (J-RT3-T3-5): 91.5 nM
IC50 (D-247MG): > 1200 nM
IC50 (NCI-H82): 0.141 µM
IC50 (HCC1187): 468 nM
IC50 (KINGS-1): 58 nM
IC50 (EOL1): 30 nM
IC50 (SW872): 22.5 nM
IC50 (no-10): 15.8 nM
IC50 (KNS-42): 82 nM
IC50 (SF-126): 43.6 nM
IC50 (KS-1): 13.9 nM
IC50 (JVM-3): > 1.2 µM
IC50 (ES1): 31 nM
IC50 (OCUB-M): 1.94 nM
IC50 (MPP-89): 181 nM
IC50 (COLO-824): 878 nM
IC50 (NKM-1): 987 nM
IC50 (NB5): 96.3 nM
IC50 (TE-8): 90.2 nM
IC50 (LB373-MEL-D): 155 nM
IC50 (LAN-6): > 1.2 µM

Cc1cc(Nc2cc(N3CCN(C)CC3)nc(Sc3ccc(NC(=O)C4CC4)cc3)n2)n[nH]1 [TOZASERTIB]
IC50 (ACN): > 2000 nM
IC50 (J-RT3-T3-5): > 2000 nM
IC50 (D-247MG): > 2000 nM
IC50 (NCI-H82): > 2 µM
IC50 (HCC1187): 1010 nM
IC50 (KINGS-1): > 2000 nM
IC50 (EOL1): 335 nM
IC50 (SW872): > 2000 nM
IC50 (no-10): > 2000 nM
IC50 (KNS-42): > 2000 nM
IC50 (SF-126): 948 nM
IC50 (KS-1): 238 nM
IC50 (JVM-3): > 2 µM
IC50 (ES1): > 2000 nM
IC50 (OCUB-M): 170 nM
IC50 (MPP-89): > 2000 nM
IC50 (COLO-824): > 2000 nM
IC50 (NKM-1): 1030 nM
IC50 (NB5): 1640 nM
IC50 (TE-8): 1800 nM
IC50 (LB373-MEL-D): > 2000 nM
IC50 (LAN-6): > 2 µM
